Test results published in PubChem BioAssay AID330 (DTP/NCI, 2004).
“And” between values parts separate entries of the source, which are not always exact repeats. Equal values may be shown once. Inconclusive results and toxic doses are left out. Bridge positions count the residues as written; N and C are the ends. Square brackets hold non-standard residues; d marks the D form. Peptide text beside a SMILES is read from it. * marks the point of attachment. Cya = N[CH](CS(=O)(=O)O)C(=O)O; X6 = CC(C)CCCCCCCC(O)CC(=O)*; GABA = NCCCC(=O)O

Tested on: P388 leukemia ip, CD2F1 mice, survival T/C
Test: NCI In Vivo Anticancer Drug Screen. Data for tumor model P388 Leukemia (intraperitoneal) in CD2F1 (CDF1) mice
Conditions: endpoint: median survival time, higher = longer survival
Outline: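 Mice carrying the transplanted tumor received test compound or vehicle. Survival was recorded in each group, and the value is the treated-group measurement divided by that of the vehicle-treated control group.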

[1] = dose: 100.0 mg/kg/injection, schedule: Q04DX002 (ip), vehicle: Klucel (hydroxypropylcellulose) (HPC)
[2] = dose: 200.0 mg/kg/injection, schedule: Q04DX002 (ip), vehicle: Klucel (hydroxypropylcellulose) (HPC)
[3] = dose: 50.0 mg/kg/injection, schedule: Q01DX009 (ip), vehicle: saline
[4] = dose: 100.0 mg/kg/injection, schedule: Q01DX009 (ip), vehicle: saline
[5] = dose: 200.0 mg/kg/injection, schedule: Q01DX009 (ip), vehicle: saline
[6] = dose: 200.0 mg/kg/injection, schedule: Q04DX003 (ip), vehicle: saline with Tween-80
[7] = dose: 50.0 mg/kg/injection, schedule: Q01DX005 (ip), vehicle: saline with Tween-80
[8] = dose: 100.0 mg/kg/injection, schedule: Q01DX005 (ip), vehicle: saline with Tween-80
[9] = dose: 50.0 mg/kg/injection, schedule: Q01DX005 (ip), vehicle: Klucel (hydroxypropylcellulose) (HPC)
[10] = dose: 100.0 mg/kg/injection, schedule: Q01DX005 (ip), vehicle: Klucel (hydroxypropylcellulose) (HPC)
[11] = dose: 200.0 mg/kg/injection, schedule: Q01DX005 (ip), vehicle: Klucel (hydroxypropylcellulose) (HPC)
[12] = dose: 12.5 mg/kg/injection, schedule: Q01DX009 (ip), vehicle: saline
[13] = dose: 25.0 mg/kg/injection, schedule: Q01DX009 (ip), vehicle: saline

O=C(O)c1[nH]c(=O)[nH]c(=O)c1F
T/C (dose: 2.5 mg/kg/injection, schedule: Q01DX010 (ip), vehicle: saline): 110 % of control
T/C (dose: 5.0 mg/kg/injection, schedule: Q01DX010 (ip), vehicle: saline): 160 % of control
T/C (dose: 16.0 mg/kg/injection, schedule: Q01DX009 (ip), vehicle: saline): 100 % of control

CCOC(=O)CN(C)C(c1ccccc1)c1cccs1 (configuration not stated)
T/C [1]: 102 % of control
T/C [2]: 105 % of control

CC(C)(OC(C)(C)C(=O)O)C(=O)O
T/C [3]: 99 % of control
T/C [4]: 94 % of control
T/C [5]: 92 % of control

CC(C)CCCCCCCC(O)CC(=O)NC(CS(=O)(=O)O)C(=O)NC(CC(C)C)C(=O)NCCCC(=O)NC(Cc1cnc[nH]1)C(=O)NC(C)C(=O)NC1C(=O)NC(C(C)O)C(=O)NC(Cc2cnc[nH]2)C(=O)NC(C)C(=O)NC(C(C)O)C(=O)OC1C (configuration not stated) (X6-[Cya]L[GABA]HATTHAT; ester 6-C; configuration not given here)
T/C (dose: 0.38 mg/kg/injection, schedule: Q01DX005 (ip), vehicle: other): 95 % of control
T/C (dose: 0.75 mg/kg/injection, schedule: Q01DX005 (ip), vehicle: other): 102 % of control
T/C (dose: 1.5 mg/kg/injection, schedule: Q01DX005 (ip), vehicle: other): 100 % of control
T/C (dose: 3.0 mg/kg/injection, schedule: Q01DX005 (ip), vehicle: other): 100 % of control
T/C (dose: 6.0 mg/kg/injection, schedule: Q01DX005 (ip), vehicle: other): 99 % of control

O=S(=O)(Nc1ncccn1)c1ccc(NCc2c3ccccc3nc3cc(Cl)ccc23)cc1
T/C (dose: 60.0 mg/kg/injection, schedule: Q01DX005 (ip), vehicle: saline with Tween-80): 87 % of control
T/C (dose: 120.0 mg/kg/injection, schedule: Q01DX005 (ip), vehicle: saline with Tween-80): 86 % of control
T/C (dose: 240.0 mg/kg/injection, schedule: Q01DX005 (ip), vehicle: saline with Tween-80): 91 % of control

c1ccc2cc3c(cc2c1)Cn1c-3nc2ccccc21
T/C [6]: 92 % of control
T/C (dose: 400.0 mg/kg/injection, schedule: Q04DX003 (ip), vehicle: saline with Tween-80): 100 % of control

O=C(Nc1ccc(NC(=O)Nc2cccc(C3=NCCCN3)c2)cc1)Nc1ccc(C2=NCCCN2)cc1
T/C (dose: 2.5 mg/kg/injection, schedule: Q01DX009 (ip), vehicle: saline with Tween-80): 113 % of control
T/C (dose: 5.0 mg/kg/injection, schedule: Q04DX003 (ip), vehicle: saline with Tween-80): 100 % of control
T/C (dose: 10.0 mg/kg/injection, schedule: Q04DX003 (ip), vehicle: saline with Tween-80): 109 % of control

CS(=O)c1c(C(=O)O)cc(C(C)(C)C)cc1C(=O)O (configuration not stated)
T/C [1]: 105 % of control
T/C [2]: 107 % of control
T/C (dose: 400.0 mg/kg/injection, schedule: Q04DX002 (ip), vehicle: Klucel (hydroxypropylcellulose) (HPC)): 96 % of control

Cc1ccc(N(C)c2cc(=O)n(C)c(=O)[nH]2)cc1C
T/C [7]: 94 % of control
T/C [8]: 103 % of control

COc1ccc(/C(C)=N/NS(=O)(=O)c2ccc(C)cc2)cc1OC
T/C (dose: 25.0 mg/kg/injection, schedule: Q01DX009 (ip), vehicle: other): 97 % of control
T/C (dose: 50.0 mg/kg/injection, schedule: Q01DX009 (ip), vehicle: other): 96 % of control
T/C (dose: 100.0 mg/kg/injection, schedule: Q01DX009 (ip), vehicle: other): 93 % of control
T/C (dose: 200.0 mg/kg/injection, schedule: Q01DX009 (ip), vehicle: other): 97 % of control
T/C (dose: 400.0 mg/kg/injection, schedule: Q01DX009 (ip), vehicle: other): 88 % of control

CN(C)P(=S)(N(C)C)N1CCOCC1
T/C (dose: 50.0 mg/kg/injection, schedule: Q04DX003 (ip), vehicle: saline with Tween-80): 104 % of control
T/C (dose: 100.0 mg/kg/injection, schedule: Q04DX003 (ip), vehicle: saline with Tween-80): 88 % of control
T/C [6]: 96 % of control

CC(=O)Nc1c(O)c2ccccc2c2ccccc12
T/C [9]: 87 % of control
T/C [10]: 92 % of control
T/C [11]: 86 % of control

CCOc1nc(C(=O)O)cc2ccsc12
T/C (dose: 100.0 mg/kg/injection, schedule: Q01DX001 (ip), vehicle: Klucel (hydroxypropylcellulose) (HPC)): 90 % of control
T/C (dose: 200.0 mg/kg/injection, schedule: Q01DX001 (ip), vehicle: Klucel (hydroxypropylcellulose) (HPC)): 94 % of control
T/C (dose: 400.0 mg/kg/injection, schedule: Q01DX001 (ip), vehicle: Klucel (hydroxypropylcellulose) (HPC)): 96 % of control

COc1cc2c(cc1OC)C(C)N(C)c1c-2c(OC(C)=O)cc2cc(OC)c(OC)cc12 (configuration not stated)
T/C [7]: 97 % of control
T/C [8]: 100 % of control
T/C (dose: 200.0 mg/kg/injection, schedule: Q01DX005 (ip), vehicle: saline with Tween-80): 92 % of control

O=C1C2CCCN2C(=S)N1c1ccccc1 (configuration not stated)
T/C (dose: 60.0 mg/kg/injection, schedule: Q01DX005 (ip), vehicle: Klucel (hydroxypropylcellulose) (HPC)): 96 % of control
T/C (dose: 120.0 mg/kg/injection, schedule: Q01DX005 (ip), vehicle: Klucel (hydroxypropylcellulose) (HPC)): 91 % of control
T/C (dose: 240.0 mg/kg/injection, schedule: Q01DX005 (ip), vehicle: Klucel (hydroxypropylcellulose) (HPC)): 94 % of control

OC12CC3CC(CN1)CC(C3)C2
T/C [9]: 109 % of control
T/C [10]: 99 % of control
T/C [11]: 95 % of control

O=C(CCl)NC(Cc1ccc(O)cc1)C(=O)O (configuration not stated)
T/C (dose: 25.0 mg/kg/injection, schedule: Q01DX009 (ip), vehicle: saline with Tween-80): 104 % of control
T/C (dose: 50.0 mg/kg/injection, schedule: Q01DX009 (ip), vehicle: saline with Tween-80): 99 % of control
T/C (dose: 100.0 mg/kg/injection, schedule: Q01DX009 (ip), vehicle: saline with Tween-80): 101 % of control and 105 % of control
T/C (dose: 200.0 mg/kg/injection, schedule: Q01DX009 (ip), vehicle: saline with Tween-80): 94 % of control
T/C (dose: 400.0 mg/kg/injection, schedule: Q01DX009 (ip), vehicle: saline with Tween-80): 114 % of control

CC(C)(C)c1cc(OCC2CO2)c(C(C)(C)C)cc1OCC1CO1 (configuration not stated)
T/C (dose: 50.0 mg/kg/injection, schedule: Q01DX009 (ip), vehicle: Klucel (hydroxypropylcellulose) (HPC)): 107 % of control
T/C (dose: 100.0 mg/kg/injection, schedule: Q01DX009 (ip), vehicle: Klucel (hydroxypropylcellulose) (HPC)): 105 % of control
T/C (dose: 200.0 mg/kg/injection, schedule: Q01DX009 (ip), vehicle: Klucel (hydroxypropylcellulose) (HPC)): 106 % of control
T/C (dose: 400.0 mg/kg/injection, schedule: Q01DX009 (ip), vehicle: Klucel (hydroxypropylcellulose) (HPC)): 116 % of control

CC(C)C(O)(C(=O)OCN1C(=O)C2C3C=CC(C2C1=O)C1C2C(=O)N(COC(=O)C(O)(C(C)C)C(C)O)C(=O)C2C31)C(C)O (configuration not stated)
T/C [12]: 110 % of control
T/C [13]: 103 % of control
T/C [3]: 109 % of control
T/C [4]: 115 % of control

CCN1C[C@@]2(C)CCC(OC)C34[C@H]2[C@@H](OC(C)=O)C2(OCO[C@]25C[C@@H](OC)C2C[C@@]3(O)[C@H]5C2O)[C@@H]14 (some centres not stated)
T/C (dose: 4.0 mg/kg/injection, schedule: Q01DX005 (ip), vehicle: saline with Tween-80): 100 % of control
T/C (dose: 8.0 mg/kg/injection, schedule: Q01DX005 (ip), vehicle: saline with Tween-80): 99 % of control
T/C (dose: 16.0 mg/kg/injection, schedule: Q01DX005 (ip), vehicle: saline with Tween-80): 97 % of control
T/C (dose: 32.0 mg/kg/injection, schedule: Q01DX005 (ip), vehicle: saline with Tween-80): 107 % of control
T/C (dose: 64.0 mg/kg/injection, schedule: Q01DX005 (ip), vehicle: saline with Tween-80): 108 % of control

CCC(=O)NC(Cc1ccccc1F)C(=O)O (configuration not stated)
T/C [12]: 101 % of control
T/C [13]: 88 % of control
T/C [3]: 91 % of control and 93 % of control
T/C [5]: 95 % of control

Cc1cccc2cc3ccccc3c[n+]12
T/C (dose: 6.25 mg/kg/injection, schedule: Q01DX005 (ip), vehicle: saline + Tween-80 + alcohol): 101 % of control
T/C (dose: 12.5 mg/kg/injection, schedule: Q01DX005 (ip), vehicle: saline + Tween-80 + alcohol): 101 % of control
T/C (dose: 25.0 mg/kg/injection, schedule: Q01DX005 (ip), vehicle: saline + Tween-80 + alcohol): 101 % of control

CNC1Cc2c[nH]c3cccc(c23)C12C=C(C)C(=O)O2 (configuration not stated)
T/C (dose: 75.0 mg/kg/injection, schedule: Q01DX009 (ip), vehicle: saline with Tween-80): 120 % of control and 115 % of control
T/C (dose: 150.0 mg/kg/injection, schedule: Q01DX009 (ip), vehicle: saline with Tween-80): 120 % of control and 115 % of control
T/C (dose: 300.0 mg/kg/injection, schedule: Q01DX009 (ip), vehicle: saline with Tween-80): 120 % of control
